Measured values reported in US11656182B2, “Method, composition, and chip for detecting analyte in blood sample” (TERUMO KABUSHIKI KAISHA, priority 2016, dated 2023).
Values after ≈ are worked out from the molar mass of the structure shown. “Also recorded” adds a separate entry of the source. Where two headings read alike, the source gives them in different places.

Legend:
[1] = Degree of solubility with respect to water at 20° C.; assay type: physicochemical
[2] = Refractive index increasing capability of refractive index adjuster (refractometer, aqueous solutions); assay type: physicochemical; details: increase amount of the refractive index per 1 [mg/ml]; inclination of approximate straight line, aqueous solutions 0 to 350 mg/ml
Protocol: Aqueous solutions prepared to have a plurality of concentrations within a range of 0 to 350 mg/ml were prepared for the respective refractive index adjusters. The refractive index of each aqueous solution was obtained with a refractometer PAL-RI (ATAGO CO., LTD.). A graph was created in which the concentration of each aqueous solution is plotted on the horizontal axis and the refractive index is plotted for each refractive index adjuster on the vertical axis, and the inclination of the approximate straight line was obtained (a value of “Refractive index increasing capability” in Table 1 indicates an increase amount of the refractive index per 1 [mg/ml], and a larger inclination indicates higher refractive index increasing capability of the refractive index adjuster). Incidentally, “unmeasurable” in Table 1 means that an aqueous solution could not be prepared due to generation of precipitates.

[3] = Spectrum analysis of detection chip before blood sample is deposited (transmittance of refractive index adjuster at 650 nm); assay type: physicochemical; details: absorption peak wavelength of WST-4
Protocol: The outline of an evaluation system used in spectrum analysis will be described below. Further, the outline of the evaluation system is illustrated in FIG. 6.
Light source: Halogen light source SPL-2H (KLV Co., Ltd.)
Conforming fiber: Core diameter=200μ or more
Spectrometer: Small fiber optical spectrometer USB2000+(Ocean Optics, Inc.)
The spectrum analysis was performed using the blood glucose value detection chips obtained in each of Embodiments and Comparative Embodiments. Incidentally, since the spacer thickness of the blood glucose value detection chip is 50 μm, the optical path length becomes 50 μm. […] Incidentally, the correction of the absorbance was performed by dividing the absorbance (actual measurement value) in each measurement wavelength by the value of the clearance (CL) (μm) actually measured in each chip and further multiplying the obtained value by […].
In the conditions of respective Embodiments and Comparative Embodiments, the value of absorbance at 650 nm (the absorption peak wavelength of WST-4) measured using the chip before the blood sample is deposited is not substantially different from the absorbance value measured by dissolving the refractive index adjuster in water and setting an optical path length of 50 μm. Therefore, from the transmittance curve before the blood sample is deposited, the transmittance of the refractive index adjuster in 650 nm that is the absorption peak wavelength of WST-4 was obtained. Incidentally, in Table 1, “⊙” represents that the transmittance at 650 nm is 60% or more and 100% or less, “◯” represents that the transmittance at 650 nm is 40% or more and less than 60%, and “X” represents that the transmittance at 650 nm is less than 40%.

red blood cell = assay: Red blood cell reducing capability of refractive index adjuster (hematocrit value change); assay type: cell-based; details: 50 mM in blood sample, hematocrit value 40 before addition, 5 minutes after mixing
Protocol: 400 μL of blood plasma was recovered from 1.0 ml of blood sample (hematocrit value: 40). A refractive index adjuster was added to 400 μL of the recovered blood plasma to have a concentration of 125 mM. The blood plasma after addition of the refractive index adjuster combined with the original blood sample and mixed by inverting (the concentration of the refractive index adjuster in the blood sample becoming 50 mM). The sample after 5 minutes from mixing by inverting was filled in a hematocrit tube and was separated by centrifugation with a hematocrit centrifuge at 11×10^3 rpm for 5 minutes. A hematocrit value (Ht) after separation by centrifugation was read. […] Incidentally, “unmeasurable” in Table 1 means that the degree of solubility of the refractive index adjuster was low so that measurement could not be performed.

[4] = Precipitates by visual inspection before drying after coating film formation; assay type: physicochemical; details: coating liquid
From the text: In the production step of the blood glucose value detection chip, existence of precipitates was confirmed by visual inspection before drying after coating film formation.

[5] = Solubility observed in preparation of coating liquid and chip (Comparative Embodiments)
From the text: Further, the solubility with respect to the blood sample was low, so that the spectrum analysis was not able to be performed.

[6] = chip with coating liquid, blood sample

| Degree of solubility [1] [mM] | Refractive index increasing capability [2] | Precipitates [4] | Degree of solubility (class) [1] | solubility with respect to the blood sample [5] | solubility with respect to water [5] | solubility [1] [mM] | Compound | Transmittance 650 nm (Coloring reagent absorption peak wavelength) [3] | Red blood cell reducing capability (ΔHt) (red blood cell) | solubility with respect to the blood sample [5, 6] |
| --- | --- | --- | --- | --- | --- | --- | --- | --- | --- | --- |
| 340 | 0.000259 | Absent | – | – | – | – | Acid Fuchsin [reference compound] | × | 14.3 | – |
| 220 | 0.000296 | Absent | – | – | – | – | O=S(=O)(O)c1cc(S(=O)(=O)O)c2c(/N=N/c3ccccc3)c(O)ccc2c1 [Orange G] | ⊙ (the transmittance at 650 nm is 60% or more and 100% or less) | 1.9 | – |
| – | 0.000109 | Absent | – | – | – | 200 (≈ 68.5 mg/mL) | OC[C@H]1O[C@H](O[C@H]2O[C@H](CO)[C@@H](O)[C@H](O)[C@H]2O)[C@H](O)[C@@H](O)[C@@H]1O [Trehalose, trehalose] | ⊙ (the transmittance at 650 nm is 60% or more and 100% or less) | 3.5 | – |
| – | 0.000129 | Absent | – | – | – | 820 (≈ 326 mg/mL) | OC[C@H]1O[C@H](O[C@]2(CCl)O[C@H](CCl)[C@@H](O)[C@@H]2O)[C@H](O)[C@@H](O)[C@H]1Cl [Sucralose, sucralose] | ⊙ (the transmittance at 650 nm is 60% or more and 100% or less) | 0.5 | – |
| 83 | 0.000381 | Absent | – | – | – | – | O=S(=O)([O-])c1ccc2c(N=Nc3ccc(S(=O)(=O)[O-])c4ccccc34)c(O)c(S(=O)(=O)[O-])cc2c1.[Na+].[Na+].[Na+] [Acid Red 27] | ◯ (the transmittance at 650 nm is 40% or more and less than 60%) | 6.7 | – |
| 487 | 0.000277 | Absent | – | – | – | – | O=C([O-])C1=NN(c2ccc(S(=O)(=O)[O-])cc2)C(=O)C1N=Nc1ccc(S(=O)(=O)[O-])cc1.[Na+].[Na+].[Na+] (centres unmarked) [Acid Yellow 23] | ⊙ (the transmittance at 650 nm is 60% or more and 100% or less) | 8.2 | – |

| Compound | Degree of solubility [1] [mM] | Refractive index increasing capability [2] | Precipitates [4] | Degree of solubility (class) [1] | solubility with respect to the blood sample [5] | solubility with respect to water [5] | solubility [1] [mM] | Transmittance 650 nm (Coloring reagent absorption peak wavelength) [3] | Red blood cell reducing capability (ΔHt) (red blood cell) | solubility with respect to the blood sample [5, 6] |
| --- | --- | --- | --- | --- | --- | --- | --- | --- | --- | --- |
| O=S(=O)(O)c1cccc(S(=O)(=O)O)c1 [DSB, 1,3-benzene disulfonate] | – | 0.000126 | Absent | – | – | – | – | ⊙ (the transmittance at 650 nm is 60% or more and 100% or less) | 9.0 | – |
| CCN(CC)c1ccc(C(=C2C=CC(=[N+](CC)CC)C=C2)c2ccc(S(=O)(=O)[O-])cc2S(=O)(=O)[O-])cc1.[Na+] [Acid Blue 1, reference compound] | – | – | precipitates were generated; also recorded: Present | × | low | low | – | × | – | – |
| O=[N+]([O-])c1ccc(-[n+]2nc(-c3ccc(S(=O)(=O)[O-])cc3S(=O)(=O)[O-])nn2-c2ccc(I)cc2)cc1.[Na+] [Wst-1, 2-(4-iodophenyl)-3-(4-nitrophenyl)-5-(2,4-disulfophenyl)-2H-tetrazolium sodium salt, reference compound] | – | 0.000174 | Absent | – | – | – | – | × | – | low |
| COc1cc([N+](=O)[O-])ccc1-n1nc(-c2ccc(S(=O)(=O)[O-])cc2S(=O)(=O)[O-])n[n+]1-c1ccc([N+](=O)[O-])cc1.[Na+] [Wst-8, 2-(2-methoxy-4-nitrophenyl)-3-(4-nitrophenyl)-5-(2,4-disulfophenyl)-2H-tetrazolium sodium salt, reference compound] | – | 0.000189 | Absent | – | – | – | – | × | – | low |
